Laboratory results as given in paper PMC5491917, “In vitro and in vivo anticancer studies of 2'-hydroxy chalcone derivatives exhibit apoptosis in colon cancer cells by HDAC inhibition and cell cycle arrest” (EXCLI Journal, 2017).
Read-outs that look alike come from different tables or passages of the source.

Experiments:
[1] = tested on: DMH induced colorectal carcinoma; assay: DMH (1,2-dimethyl hydrazine) induced colon cancer in Wistar rats; assay type: in vivo; details: test compounds 100 mg/kg p.o., 5-FU 10 mg/kg i.p., 21 days; for TNF-α level in colon homogenate: ELISA, DMH control 20.2 ± 0.8, normal control 0.8 ± 0.1; for No. of ACF/5 cm^2: colon tissue, DMH control 81.6 ± 1.4; for No. of ACF/5 cm^2 / No. of adenocarcinoma: mean ± SEM, n=6; for No. of adenocarcinoma: entire colon, DMH control 15 ± 1.2
Description: Test compound: Three test compounds, namely C1, C2 & C3 were suspended in 0.25 % sodium carboxy methyl cellulose (CMC) and were administered orally (p.o) with a dosing volume of 10 ml/kg.
Standard drug: 5-Fluorouracil (5-FU) was used as standard. It was procured in the form of injection and administered intraperitoneally (i.p) with a dosing volume of 10 ml/kg.
Induction of colon cancer was achieved using DMH according to a previously described procedure with few modifications (Perše and Cerar, 2005[15]). DMH at a dose of 30 mg/kg was administered i.p once a week for 20 weeks. The incidence of aberrant crypt foci (ACFs) and adenocarcinoma were confirmed by sacrificing a few of the animals after 20 weeks confirming the induction of colon cancer in experimental animals. Finally, the animals were randomized into five experimental groups based on their body weight.
Group 1 (normal control): Animals (n=6) were administered 0.25 % CMC in water p.o.
Group 2 (DMH control): Animals (n=6) were administered DMH
Group 3 (standard drug): Animals (n=6) received 5-FU 10 mg/kg i.p. for 21 days of study period
Group 4 (C1): Animals (n=6) received C1 at 100 mg/kg p.o for 21 days
Group 5 (C2): Animals (n=6) received C2 at 100 mg/kg p.o. for 21 days.
Group 6 (C3): Animals (n=6) received C3 at 100 mg/kg p.o. for 21 days.
The distal part of the colon, which was removed from the experimental animals after the study period was cut open and placed flat on a filter paper and fixed with 10 % buffered formalin for 12 h. Further, it was stained with 0.1 % methylene blue in PBS for 5 min. Specimens were later observed under microscope for ACF formation and were calculated as the number of counts/5 cm^2 in colon tissue. The entire colon was considered to study the incidence of adenocarcinoma. The growth was critically observed and the count and size were noted from each animal.
The levels of TNF-α were estimated in the colon of experimental animals, for which 10 % homogenate of colon tissue was prepared in tissue lysis buffer. The homogenate was centrifuged and the supernatant was collected to measure TNF-α levels using commercially available ELISA kits of rat TNF-α (# KRC3011, Invitrogen).
Length of the isolated colon was measured in centimeters and weight was measured in g. The colon length/weight (L/W) ratio was then calculated. Isolated spleen, kidney and heart of the experimental animals were also weighed in g and respective index was calculated.
Histopathology was carried out according to the described procedure (Reddy et al., 2015[18]). The stained slides were then analyzed under a microscope for any anatomical changes.
All the values were expressed as mean ± SEM of 6 animals. Data were analyzed using one-way ANOVA followed by Tukey's multiple comparison tests using Prism 5.03 (Graph Pad Software Inc., La Jolla, CA, USA). Values of p < 0.05 were considered to be significant.

HCT116 cells [2] = assay: Annexin V assay (Muse Cell Analyzer); assay type: cell-based, human; details: HCT116, 48 h; 5-FU 20 μM, C1 25 μM, C2 70 μM, C3 70 μM
Description: Apoptosis determination by Annexin V staining was carried out using Muse Cell Analyzer with the kit provided by the manufacturer Merck Millipore. In brief, 1 × 10^6 cells were seeded in 60 mm tissue culture dish and after overnight adherence test compounds were added and incubated. After 48 h the cells were detached by trypsinization, centrifuged and resuspended. 100 µl of cell suspension was added with 100 µl of Annexin V reagent and incubated for 20 min at room temperature following which the cells were analyzed for apoptosis.

HCT116 cells [3] = assay: Acridine orange/Ethidium bromide (AO/EB) staining; assay type: cell-based, human; details: HCT116, 48 h, mean ± SEM of 100 cells
Description: AO/EB dual staining was performed in order to determine the apoptosis inducing potential of the selected test compounds in HCT116 cell line with few modifications (Kumar et al., 2016[9]). In brief, 5 × 10^5 cells were seeded in 6 wells plate containing 2 ml of medium and incubated for 24 h. After 24 h, cells were treated with the test compounds and incubated for 48 h. After 48 h of incubation, the wells were washed with phosphate buffer saline (PBS) and cells were fixed with ice cold ethanol (70 %) for 30 min. Ethanol was then removed and cells were washed again with PBS followed by the addition of 200 µl of AO/EB (20/30 µg/ml) stain in each well. The plate was later kept in the dark for 20 min. The excess stain was further washed thrice with PBS and observed for their fluorescence under a fluorescent microscope (Eclipse TS100-F, Nikon Instruments Inc., Melville, NY, USA).

[4] = tested on: histone deacetylase (HDAC) enzyme; assay: Whole cell HDAC enzyme assay; assay type: cell-based, human; details: HCT116 cells
Description: HCT116 cells were harvested and seeded in 96 well sterile, black well plates at 2 × 10^4 cells/well and incubated overnight. Further, the cells were treated with different concentration of the test compounds for a period of 18 h. Then, 15 mM Boc-Lys(Ac)-AMC substrate (Sigma Aldrich # SCP0168) was added and incubated for 1 h. The reaction was terminated by the addition of 50 µL of stop solution (trypsin 2 mg/ml, 1 % NP40, […]) in HDAC assay buffer (25 mM Tris-HCl (pH 8.0), 137 mM NaCl, 2.7 mM KCl, 1 mM MgCl2). The reaction was then allowed to proceed for 15 min at 37 °C after which, the fluorescence was measured at 360 nm excitation and 460 nm emission using fluorescence micro plate reader (FLx800, BioTek Instruments Inc., Winooski, VT, USA) (Reddy et al., 2015[18]).

HCT116 cells [5] = assay: MTT cytotoxicity assay on HCT116; assay type: cell-based; details: Homo sapiens
Description: (§1) Human colorectal carcinoma (HCT116) and African green monkey kidney epithelial cells (VERO) were procured from the National Centre for Cell Science, Pune, MH, India. The cells were maintained in Dulbecco's Modified Eagle's Medium (DMEM) (Sigma-Aldrich Co. LLC, ST. Louis, Mo, USA) supplemented with 10 % Fetal Bovine Serum (FBS) (HiMedia Laboratories, Mumbai, India) and 1 × Penicillin/Streptomycin at 37 °C in CO2 incubator (NU-5501 E/G, NuAire Inc., Plymoth, MN, USA) in humidified atmosphere of 5 % CO2 and 95 % air. The cells were maintained by routine sub-culturing in 25 cm^2 tissue culture flasks.
(§2) Cytotoxic potential of the test compounds were assessed using MTT assay (Kumar et al., 2016[9]). In brief, HCT116 and Vero cells were harvested from confluent flask and seeded (5 × 10^4 cells/well) in 96 well plates. After 24 h of incubation, the cells were exposed to different concentration of the test compounds for 48 h. Further, 50 µl of MTT reagent (HiMedia Laboratories, Mumbai, India) (2 mg/ml in sterile PBS) was added into each well after 48 h and incubated for 3 more h. The formazan crystals formed were solubilized using 100 % DMSO and the optical density was measured at 540 nm using micro plate reader (ELx800, BioTek Instruments Inc., Winooski, VT, USA).

Vero cells = assay: MTT cytotoxicity assay on Vero; assay type: cell-based, African green monkey; details: Chlorocebus sabaeus, 48 h exposure
Description: as §1, §2

HCT116 cells [6] = assay: Cell cycle analysis (propidium iodide, flow cytometry); assay type: cell-based, human; details: HCT116, 48 h treatment; for Cells in G2/M phase (M3): normal control 18.2 %
Description: The ability of the test compounds to arrest any phase of the cell cycle was determined using the described procedure (Reddy et al., 2015[18]). In this method, HCT116 cells were harvested and seeded at a density of 1 × 10^6 cell in 60 mm petri plate and incubated for 24 h. After 24 h cells were treated with test compounds for 48 h. Then the cells were washed with PBS, trypsinized and centrifuged. The cell pellets were later fixed in 70 % ice cold ethanol and stored at -20 °C for 24 h. After fixing, the pellet was dislodged in PBS and stained with propidium iodide solution. The cells were then analyzed using Accuri C6 flow cytometer with the threshold levels adjusted to remove the debris (BD Biosciences, San Jose, CA, USA) and data analysis were performed using BD Accuri™ C6 software.

[7] = 18 h treatment, mean ± SEM, triplicate, read-out: IC50 whole cell HDAC enzyme inhibition
[8] = read-out: IC50 inhibition of HDAC (unit inferred)
[9] = HCT-116, 48 h exposure, read-out: IC50 Value HCT116
[10] = HCT-116, 48 h of treatment, read-out: IC50 value on HCT116 cells

SMILES	IC50 [4, 7] [µM]	TNF-α level in colon homogenate [1]	No. of ACF/5 cm^2 [1]	No. of adenocarcinoma [1]	Early Apop. (Annexin V) (HCT116 cells [2]) [%]	Total apoptotic cells (Annexin V) (HCT116 cells [2])	% apoptotic cells (AO/EB staining) (HCT116 cells [3]) [%]	IC50 [4, 8] [µM]	IC50 (HCT116 cells [5]; [9]) [µM]	IC50 (Vero cells) [µM]	IC50 (HCT116 cells [5]; [10]) [µM]	Cells in G2/M phase (M3) (HCT116 cells [6]) [%]	IC50 (HCT116 cells [5]; HCT-116, 48 h, 48 h exposure, read-out: IC50 Value HCT116) [µM]	Cells in S phase (M2) (HCT116 cells [6]; normal control 9.5 %) [%]
O=c1[nH]cc(F)c(=O)[nH]1 [5-FU, 5-Fluorouracil, reference compound]	–	16.09 ± 1.9	42.3 ± 1.4 /5 cm^2	7 ± 0.5	15.86	38.08 % of total cells	45 ± 0.87	–	–	–	–	–	–	–
O=C(/C=C/c1ccc(O)cc1)c1ccccc1O [C2, 3-(4-Hydroxy-phenyl)-1-(2-hydroxy-phenyl)-propenone]	394 ± 12.9	–	60.0 ± 1.1 /5 cm^2	–	18	36.60 % of total cells	40 ± 2.5	< 500	81.4	88.3	< 200	19.5	–	–
CN(C)c1ccc(/C=C/C(=O)c2ccccc2O)cc1 [C4, 3-(4-Dimethylamino-phenyl)-1-(2-hydroxy-phenyl)-propenone]	470 ± 11	–	–	–	–	–	–	< 500	–	> 500	–	–	> 500	–
Cc1ccc(/C=C/C(=O)c2ccccc2O)cc1 [C1, 1-(2-Hydroxy-phenyl)-3-p-tolyl-propenone]	105	6.18 ± 2.5	54.0 ± 0.5 /5 cm^2	10 ± 0.8	5.85	37.70 % of total cells	42.4 ± 2.25	< 500	–	26.3	–	25	–	–

Second part, led by results:

IC50 [4, 7] [µM]	SMILES	TNF-α level in colon homogenate [1]	No. of ACF/5 cm^2 [1]	No. of adenocarcinoma [1]	Early Apop. (Annexin V) (HCT116 cells [2]) [%]	Total apoptotic cells (Annexin V) (HCT116 cells [2])	% apoptotic cells (AO/EB staining) (HCT116 cells [3]) [%]	IC50 [4, 8] [µM]	IC50 (HCT116 cells [5]; [9]) [µM]	IC50 (Vero cells) [µM]	IC50 (HCT116 cells [5]; [10]) [µM]	Cells in G2/M phase (M3) (HCT116 cells [6]) [%]	IC50 (HCT116 cells [5]; HCT-116, 48 h, 48 h exposure, read-out: IC50 Value HCT116) [µM]	Cells in S phase (M2) (HCT116 cells [6]; normal control 9.5 %) [%]
160 ± 15.5	CN(C)c1ccc(/C=C/C(=O)c2ccc(O)cc2O)cc1 [C5]	–	–	–	–	–	–	< 500	–	–	–	–	–	–
826 ± 58.1	O=C(O)c1ccc(C=CC(=O)c2c(O)cccc2O)cc1 [C6, 4-[3-(2,6-Dihydroxy-phenyl)-3-oxo-propenyl]-benzoic acid]	–	–	–	–	–	–	–	> 500	> 500	–	–	–	–
929 ± 56.6	O=C(O)c1ccc(C=CC(=O)c2ccccc2O)cc1 [C3, 4-[3-(2-Hydroxy-phenyl)-3-oxo-propenyl]-benzoic acid]	–	73.6 ± 0.8 /5 cm^2	–	–	31.80 % of total cells	38.7 ± 0.94	–	117	178	< 200	–	–	12
3.6 ± 0.2	O=C(CCCCCCC(=O)Nc1ccccc1)NO [SAHA, reference compound]	–	–	–	–	–	–	–	–	–	–	–	–	–
